Patent US12492188B2, “1H-benzo[D]imidazole derivatives as TLR9 inhibitors for the treatment of fibrosis” (BRISTOL-MYERS SQUIBB COMPANY, priority 2020, dated 2025)
Where two headings read alike, the source gives them in different places.

Columns and labels:
Format in all cases: cell-based
human TLR9 = target: T1, human TLR9 (Homo sapiens, UniProt Q9NR96); experiment: TLR9 inhibition reporter assay (HEK-Blue cells, secreted embryonic alkaline phosphatase reporter)
T1 construct: host or cells: HEK-Blue cells (HEK293-derived reporter line)
T1 sequence (Q9NR96 26-1032): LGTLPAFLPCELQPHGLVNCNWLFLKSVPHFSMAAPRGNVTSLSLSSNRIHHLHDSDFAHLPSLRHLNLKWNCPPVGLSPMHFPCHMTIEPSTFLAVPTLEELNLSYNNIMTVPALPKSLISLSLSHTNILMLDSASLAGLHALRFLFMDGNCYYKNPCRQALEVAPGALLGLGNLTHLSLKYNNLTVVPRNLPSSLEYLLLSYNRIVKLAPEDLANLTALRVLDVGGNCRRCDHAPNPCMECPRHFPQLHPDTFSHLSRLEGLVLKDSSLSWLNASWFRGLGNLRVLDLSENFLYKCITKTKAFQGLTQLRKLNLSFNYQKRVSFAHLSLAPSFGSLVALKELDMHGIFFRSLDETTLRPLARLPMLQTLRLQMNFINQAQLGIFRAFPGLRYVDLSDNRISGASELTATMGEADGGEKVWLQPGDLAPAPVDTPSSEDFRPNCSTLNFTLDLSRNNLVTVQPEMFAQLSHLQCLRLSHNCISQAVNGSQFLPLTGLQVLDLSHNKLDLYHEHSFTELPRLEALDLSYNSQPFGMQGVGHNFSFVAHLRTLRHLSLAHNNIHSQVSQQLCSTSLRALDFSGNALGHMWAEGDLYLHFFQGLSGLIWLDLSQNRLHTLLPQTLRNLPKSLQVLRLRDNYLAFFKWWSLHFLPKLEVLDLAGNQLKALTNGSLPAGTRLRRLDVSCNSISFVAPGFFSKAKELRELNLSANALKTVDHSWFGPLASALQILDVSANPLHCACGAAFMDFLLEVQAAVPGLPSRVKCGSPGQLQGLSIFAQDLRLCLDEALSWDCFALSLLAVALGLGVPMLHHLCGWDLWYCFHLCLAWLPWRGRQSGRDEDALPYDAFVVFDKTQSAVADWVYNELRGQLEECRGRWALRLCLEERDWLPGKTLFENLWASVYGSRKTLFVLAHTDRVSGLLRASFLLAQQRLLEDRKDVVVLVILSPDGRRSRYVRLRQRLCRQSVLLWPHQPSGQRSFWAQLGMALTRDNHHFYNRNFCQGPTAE
Method in brief: (§1)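 Inhibitors are tested in dose response (0.05 nM–50 μM) on HEK-Blue reporter cells expressing human TLR7, TLR8 or TLR9. After 30 min at room temperature, each line is stimulated with its own agonist (gardiquimod 7.5 μM, R848 15.9 μM or ODN2006 5 nM, final) and SEAP is measured 22 h later.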

human TLR7 = target: T2, human TLR7 (Homo sapiens, UniProt Q9NYK1); experiment: TLR7 inhibition reporter assay (HEK-Blue cells, secreted embryonic alkaline phosphatase reporter); conditions: HEK-Blue cells overexpressing human TLR7, stimulated with gardiquimod 7.5 μM; read-out: TLR 7 IC50
T2 construct: host or cells: HEK-Blue cells (HEK293-derived reporter line)
T2 sequence (Q9NYK1 27-1049): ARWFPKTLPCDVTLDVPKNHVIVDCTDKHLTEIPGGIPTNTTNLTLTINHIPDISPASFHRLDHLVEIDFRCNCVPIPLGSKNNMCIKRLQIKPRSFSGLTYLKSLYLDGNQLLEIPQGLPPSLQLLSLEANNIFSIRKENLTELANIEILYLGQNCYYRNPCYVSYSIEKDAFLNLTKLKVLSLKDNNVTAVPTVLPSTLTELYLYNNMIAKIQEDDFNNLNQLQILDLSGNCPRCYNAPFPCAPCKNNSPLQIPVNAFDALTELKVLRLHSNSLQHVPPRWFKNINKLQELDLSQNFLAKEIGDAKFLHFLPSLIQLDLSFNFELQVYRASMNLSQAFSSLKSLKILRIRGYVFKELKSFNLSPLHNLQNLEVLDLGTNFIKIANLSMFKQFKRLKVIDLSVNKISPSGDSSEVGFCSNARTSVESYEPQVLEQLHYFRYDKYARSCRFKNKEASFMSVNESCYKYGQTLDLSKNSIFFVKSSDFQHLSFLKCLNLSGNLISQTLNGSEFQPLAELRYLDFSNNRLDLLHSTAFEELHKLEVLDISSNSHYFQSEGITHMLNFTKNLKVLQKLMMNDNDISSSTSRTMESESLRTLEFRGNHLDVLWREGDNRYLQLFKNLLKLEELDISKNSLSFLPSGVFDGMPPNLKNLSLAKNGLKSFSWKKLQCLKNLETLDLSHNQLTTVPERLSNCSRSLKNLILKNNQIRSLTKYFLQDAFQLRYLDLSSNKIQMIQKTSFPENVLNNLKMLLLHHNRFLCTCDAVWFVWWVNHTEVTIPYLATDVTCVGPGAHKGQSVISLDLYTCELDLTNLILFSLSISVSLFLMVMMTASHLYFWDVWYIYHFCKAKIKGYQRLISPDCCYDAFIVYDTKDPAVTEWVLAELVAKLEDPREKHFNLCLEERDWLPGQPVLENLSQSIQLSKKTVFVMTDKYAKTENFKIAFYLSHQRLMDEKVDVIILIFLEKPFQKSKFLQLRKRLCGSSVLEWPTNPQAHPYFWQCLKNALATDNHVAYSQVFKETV
Method in brief: as §1

human TLR8 = target: T3, human TLR8 (Homo sapiens, UniProt Q9NR97); experiment: TLR8 inhibition reporter assay (HEK-Blue cells, secreted embryonic alkaline phosphatase reporter); conditions: HEK-Blue cells overexpressing human TLR8, stimulated with R848 15.9 μM; read-out: TLR 8 IC50
T3 construct: host or cells: HEK-Blue cells (HEK293-derived reporter line)
T3 sequence (Q9NR97 27-1041): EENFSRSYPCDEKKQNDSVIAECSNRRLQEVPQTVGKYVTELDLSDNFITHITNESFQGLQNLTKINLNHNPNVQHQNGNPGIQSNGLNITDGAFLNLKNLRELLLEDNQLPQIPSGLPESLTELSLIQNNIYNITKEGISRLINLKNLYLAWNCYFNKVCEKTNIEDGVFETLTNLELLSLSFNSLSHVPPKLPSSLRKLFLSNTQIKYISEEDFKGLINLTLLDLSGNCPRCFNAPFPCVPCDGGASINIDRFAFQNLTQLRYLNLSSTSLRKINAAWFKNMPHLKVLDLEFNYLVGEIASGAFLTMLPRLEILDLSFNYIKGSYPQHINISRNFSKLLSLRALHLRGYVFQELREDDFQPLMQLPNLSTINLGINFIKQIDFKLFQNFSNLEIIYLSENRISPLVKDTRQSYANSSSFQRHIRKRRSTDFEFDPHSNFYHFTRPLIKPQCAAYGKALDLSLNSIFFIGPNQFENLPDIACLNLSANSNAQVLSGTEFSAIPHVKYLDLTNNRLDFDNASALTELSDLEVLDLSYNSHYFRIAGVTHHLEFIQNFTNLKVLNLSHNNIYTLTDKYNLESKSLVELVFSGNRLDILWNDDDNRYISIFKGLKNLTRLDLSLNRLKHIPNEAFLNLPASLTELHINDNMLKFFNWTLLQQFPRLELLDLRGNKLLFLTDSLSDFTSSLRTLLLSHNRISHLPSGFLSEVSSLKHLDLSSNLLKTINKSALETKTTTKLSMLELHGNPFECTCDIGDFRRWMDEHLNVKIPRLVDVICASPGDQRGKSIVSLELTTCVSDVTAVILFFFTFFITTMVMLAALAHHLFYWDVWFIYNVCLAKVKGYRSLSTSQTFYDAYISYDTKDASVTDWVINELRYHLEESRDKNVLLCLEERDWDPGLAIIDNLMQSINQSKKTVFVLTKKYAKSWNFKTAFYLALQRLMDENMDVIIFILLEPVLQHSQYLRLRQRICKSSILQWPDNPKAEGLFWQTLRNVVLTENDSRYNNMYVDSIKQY
Method in brief: as §1

[1] = HEK-Blue cells overexpressing human TLR9, stimulated with ODN2006 5 nM, read-out: TLR 9 IC50
[2] = HEK-Blue cells overexpressing human TLR9, stimulated with ODN2006 5 nM, 22 hour incubation, reporter readout
[3] = HEK-Blue human TLR9 reporter cells

Structure (SMILES) | IC50 (human TLR9) [µM] | IC50 (human TLR9; [1]) [µM] | IC50 (human TLR7) [µM] | IC50 (human TLR8) [µM] | IC50 (human TLR9; [2]) [µM] | IC50 (human TLR9; [3]) [µM]
CC(C)N1CCC(N2CCC(c3ccc4nc(-c5ccc(S(C)(=O)=O)cc5)n(C)c4c3F)CC2)CC1 [Example 102, 7-fluoro-6-(1′-isopropyl-[1,4′-bipiperidin]-4-yl)-1-methyl-2-(4-(methylsulfonyl)phenyl)-1H-benzo[d]imidazole] | – | – | 9.8 | > 50 | 0.03 | –
Cc1cc(C2CCN(C3CC4CCC(C3)N4C(C)C)CC2)cc2c1nc(-c1ccc(S(C)(=O)=O)cc1)n2C (single isomer, unassigned) [Example 84, 6-(1-(8-isopropyl-8-azabicyclo[3.2.1]octan-3-yl)piperidin-4-yl)-1,4-dimethyl-2-(4-(methylsulfonyl)phenyl)-1H-benzo[d]imidazole] | – | – | 18.6 | > 25 | 0.072 | –
Cn1c(-c2ccc(S(C)(=O)=O)cc2)nc2cc(C3CCN(C4CC5CCC(C4)N5C4COC4)CC3)cc(F)c21 (single isomer, unassigned) [Example 213, 7-fluoro-1-methyl-2-(4-(methylsulfonyl)phenyl)-5-(1-(8-(oxetan-3-yl)-8-azabicyclo[3.2.1]octan-3-yl)piperidin-4-yl)-1H-benzo[d]imidazole] | 0.34 | 0.335 | > 50 | > 50 | – | –
Cn1c(-c2ccc(S(C)(=O)=O)cc2)nc2cc(C3CCN(C4CC5CCC(C4)N5C4CCC4)CC3)cc(F)c21 (single isomer, unassigned) [Example 215, 5-(1-(8-cyclobutyl-8-azabicyclo[3.2.1]octan-3-yl)piperidin-4-yl)-7-fluoro-1-methyl-2-(4-(methylsulfonyl)phenyl)-1H-benzo[d]imidazole] | 0.07 | 0.07 | 17 | > 50 | – | –
CC(C)N1C2CCC1CC(N1CCC(c3cc(F)c4c(c3)nc(-c3ccc(S(C)(=O)=O)cc3)n4C)CC1)C2 (single isomer, unassigned) [Example 92, 7-fluoro-5-(1-(8-isopropyl-8-azabicyclo[3.2.1]octan-3-yl)piperidin-4-yl)-1-methyl-2-(4-(methylsulfonyl)phenyl)-1H-benzo[d]imidazole] | – | 0.105 | > 50 | > 50 | 0.11 | –
Cc1cc(C2CCN(C3CCN(CC(C)C)CC3)CC2)cc2c1nc(-c1ccc(S(C)(=O)=O)cc1)n2C [Example 52, 6-(1′-isobutyl-[1,4′-bipiperidin]-4-yl)-1,4-dimethyl-2-(4-(methylsulfonyl)phenyl)-1H-benzo[d]imidazole] | – | 0.129 | 4.8 | > 50 | 0.13 | –

Continued, values first:

IC50 (human TLR9) [µM] | IC50 (human TLR9; [1]) [µM] | IC50 (human TLR7) [µM] | IC50 (human TLR8) [µM] | IC50 (human TLR9; [2]) [µM] | IC50 (human TLR9; [3]) [µM] | Structure (SMILES)
1.7 | 1.73 | > 50 | > 50 | – | – | Cn1c(-c2ccc(S(C)(=O)=O)cc2)nc2cc(F)c(C3CCN(C4CC5CCC(C4)N5C4COC4)CC3)cc21 (single isomer, unassigned) [Example 235, 5-fluoro-1-methyl-2-(4-(methylsulfonyl)phenyl)-6-(1-(8-(oxetan-3-yl)-8-azabicyclo[3.2.1]octan-3-yl)piperidin-4-yl)-1H-benzo[d]imidazole]
0.089 | 0.089 | > 50 | > 50 | – | – | Cn1c(-c2ccc(S(C)(=O)=O)cc2)nc2ccc(C3CCN(C4CC5CCC(C4)N5C4CCOCC4)CC3)c(F)c21 (stereo not drawn) [Example 275, 7-fluoro-1-methyl-2-(4-(methylsulfonyl)phenyl)-6-(1-(8-(tetrahydro-2H-pyran-4-yl)-8-azabicyclo[3.2.1]octan-3-yl)piperidin-4-yl)-1H-benzo[d]imidazole]
– | 0.034 | 1.9 | > 50 | – | 0.034 | COCCN1CCCC(N2CCC(c3cc(C)c4nc(-c5ccc(S(C)(=O)=O)cc5)n(C)c4c3)CC2)CC1 (single isomer, unassigned) [Example 309, 6-(1-(1-(2-methoxyethyl)azepan-4-yl)piperidin-4-yl)-1,4-dimethyl-2-(4-(methylsulfonyl)phenyl)-1H-benzo[d]imidazole]
0.036 | 0.036 | 32.4 | > 50 | – | – | Cn1c(-c2ccc(S(C)(=O)=O)cc2)nc2cc(F)c(C3CCN(C4CC5CCC(C4)N5CC4CC4)CC3)cc21 (stereo not drawn) [Example 230, 6-(1-(8-(cyclopropylmethyl)-8-azabicyclo[3.2.1]octan-3-yl)piperidin-4-yl)-5-fluoro-1-methyl-2-(4-(methylsulfonyl)phenyl)-1H-benzo[d]imidazole]
– | 0.144 | 22.2 | > 50 | – | 0.15 | COCCN1C2CCC1CC(N1CCC(c3cc(F)c4nc(-c5ccc(S(C)(=O)=O)cc5)n(C)c4c3)CC1)C2 (single isomer, unassigned) [Example 290, 4-fluoro-6-(1-(8-(2-methoxyethyl)-8-azabicyclo[3.2.1]octan-3-yl)piperidin-4-yl)-1-methyl-2-(4-(methylsulfonyl)phenyl)-1H-benzo[d]imidazole]
